Measurements taken from ChEMBL document CHEMBL1201862, “PubChem BioAssay data set” (2004).
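Briefly, cells in 96-well plates were exposed to five compound concentrations for 48 h, and endpoints were estimated by linear interpolation. GI50 marks 50% less growth.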 Activity calls are given as the source filed them. Rule as the data show it: active = GI50 up to about 1.1 µM and inactive = higher.

Columns and labels:
Experiment in all cases: growth of human tumour cells (NCI), 48 h
SF-295 = test system: SF-295
OVCAR-8 = test system: OVCAR-8
SW-620 = test system: SW-620
DU-145 = test system: DU-145
Hs-578T = test system: Hs-578T
MDA-MB-231 = test system: MDA-MB-231
SK-OV-3 = test system: SK-OV-3
RPMI-8226 = test system: RPMI-8226
NCI-H23 = test system: NCI-H23
NCI-H460 = test system: NCI-H460
TK-10 = test system: TK-10
T47D = test system: T47D
EKVX = test system: EKVX
MCF7 = test system: MCF7
SR = test system: SR
MDA-N = test system: MDA-N
RXF 393 = test system: RXF 393
NCI-H522 = test system: NCI-H522
OVCAR-4 = test system: OVCAR-4
HCT-116 = test system: HCT-116

Measured: GI50

COC1CC(OC2CCC3(C)C(=CCC4C3C(OC(C)=O)C(OC(=O)CC(C)C)C3(C)C(C(C)=O)CCC43O)C2)OC(C)C1OC1CC(OC)C(OC2CC(OC)C(OC3OC(C)C(O)C(OC)C3O)C(C)O2)C(C)O1 (stereo not given)
inactive: SF-295 33 µM | OVCAR-8 29.2 µM | SW-620 31.3 µM | DU-145 40.6 µM | Hs-578T 49.8 µM | MDA-MB-231 26.5 µM | SK-OV-3 51.1 µM | RPMI-8226 17.7 µM | NCI-H23 34 µM | NCI-H460 28.7 µM | TK-10 25.9 µM | T47D 38.2 µM | EKVX 34.8 µM | MCF7 21.9 µM | SR 31.5 µM | MDA-N 32.1 µM | RXF 393 20.1 µM | NCI-H522 37.9 µM | OVCAR-4 39.5 µM | HCT-116 26.7 µM

Cc1ccc(S(=O)(=O)n2cncc2CO)cc1
inactive: SF-295 > 100 µM | OVCAR-8 > 100 µM | SW-620 > 100 µM | DU-145 > 100 µM | Hs-578T > 100 µM | MDA-MB-231 > 100 µM | SK-OV-3 > 100 µM | RPMI-8226 > 100 µM | NCI-H23 > 100 µM | NCI-H460 > 100 µM | TK-10 > 100 µM | T47D > 100 µM | EKVX > 100 µM | MCF7 > 100 µM | SR > 100 µM | MDA-N > 100 µM | RXF 393 > 100 µM | NCI-H522 > 100 µM | OVCAR-4 > 100 µM | HCT-116 > 100 µM

COC1(C)CP(=O)(OC(C)C)CC(C)=C1Cl (stereo not given)
inactive: SF-295 11.8 µM | OVCAR-8 16.1 µM | SW-620 14.4 µM | DU-145 19.3 µM | Hs-578T 9.84 µM | MDA-MB-231 15.9 µM | SK-OV-3 49.2 µM | RPMI-8226 3.78 µM | NCI-H23 10.7 µM | NCI-H460 18.3 µM | TK-10 15.9 µM | T47D 13.6 µM | EKVX 14.6 µM | MCF7 4.67 µM | SR 7.19 µM | MDA-N 13.2 µM | RXF 393 21.4 µM | NCI-H522 9.62 µM | OVCAR-4 15 µM | HCT-116 6.37 µM

NC(=S)N/N=C\CC(O)(C(F)(F)F)C(F)(F)F
inactive: SF-295 > 10 µM | OVCAR-8 > 10 µM | SW-620 > 10 µM | DU-145 > 10 µM | Hs-578T > 10 µM | MDA-MB-231 > 10 µM | SK-OV-3 > 10 µM | RPMI-8226 > 10 µM | NCI-H23 > 10 µM | NCI-H460 > 10 µM | TK-10 > 10 µM | T47D > 10 µM | EKVX > 10 µM | MCF7 > 10 µM | SR > 10 µM | MDA-N > 10 µM | RXF 393 > 10 µM | NCI-H522 > 10 µM | OVCAR-4 > 10 µM | HCT-116 > 10 µM

Cn1c2ccccc2c2c3c(c4c5ccccc5n(C5OC(CO)C(O)C(O)C5O)c4c21)C(=O)OC3=O (stereo not given)
inactive: SF-295 > 100 µM | OVCAR-8 > 100 µM | SW-620 > 100 µM | DU-145 > 100 µM | Hs-578T > 100 µM | MDA-MB-231 > 100 µM | SK-OV-3 > 100 µM | RPMI-8226 > 100 µM | NCI-H23 > 100 µM | NCI-H460 > 100 µM | TK-10 > 100 µM | T47D 52.2 µM | EKVX > 100 µM | MCF7 > 100 µM | SR > 100 µM | MDA-N > 100 µM | RXF 393 > 100 µM | NCI-H522 > 100 µM | OVCAR-4 > 100 µM | HCT-116 > 100 µM
